Reference: the NIST ThermoML archive (doi:10.1016/j.jct.2008.10.010)

Experiment: molar heat capacity at constant pressure; xn = mol fraction of the nth substance listed
Settings: 101.3 kPa, Liquid, Small sample (50 mg) DSC

CCC(C)(C)O [2-methylbutan-2-ol] + CCCCCCC
Settings | molar heat capacity at constant pressure [J/K/mol]
300.15 K, x1 = 0.7015 | 252.48
300.15 K, x1 = 0.8023 | 251.41
300.15 K, x1 = 0.9139 | 250.21
300.15 K, x1 = 0.9609 | 249.66
301.14 K, x1 = 0.0061 | 225.7
301.14 K, x1 = 0.0494 | 236.34
301.14 K, x1 = 0.1 | 242.42
301.14 K, x1 = 0.1999 | 248.44
301.14 K, x1 = 0.2993 | 251.7
301.14 K, x1 = 0.4051 | 253.31
301.14 K, x1 = 0.4986 | 253.99
301.14 K, x1 = 0.5981 | 254.13
301.14 K, x1 = 0.7015 | 253.67
301.14 K, x1 = 0.8023 | 252.61
301.14 K, x1 = 0.9139 | 251.4
301.14 K, x1 = 0.9609 | 250.8
301.16 K, x1 = 0.0249 | 230.74
301.58 K, x1 = 0.1547 | 246.46
302.14 K, x1 = 0.0061 | 226.13
302.14 K, x1 = 0.0249 | 231.02
302.14 K, x1 = 0.0494 | 236.64
302.14 K, x1 = 0.1 | 243.03
302.14 K, x1 = 0.1547 | 246.89
302.14 K, x1 = 0.1999 | 249.24
302.14 K, x1 = 0.2993 | 252.65
302.14 K, x1 = 0.4051 | 254.36
302.14 K, x1 = 0.4986 | 255.15
302.14 K, x1 = 0.5981 | 255.29
302.14 K, x1 = 0.7015 | 254.9
302.14 K, x1 = 0.8023 | 253.83
302.14 K, x1 = 0.9139 | 252.62
302.14 K, x1 = 0.9609 | 251.98
303.15 K, x1 = 0.0061 | 226.42
303.15 K, x1 = 0.0249 | 231.23
303.15 K, x1 = 0.0494 | 236.93
303.15 K, x1 = 0.1 | 243.44
303.15 K, x1 = 0.1547 | 247.5
303.15 K, x1 = 0.1999 | 249.92
303.15 K, x1 = 0.2993 | 253.53
303.15 K, x1 = 0.4051 | 255.32
303.15 K, x1 = 0.4986 | 256.2
303.15 K, x1 = 0.5981 | 256.41
303.15 K, x1 = 0.7015 | 256.05
303.15 K, x1 = 0.8023 | 255
303.15 K, x1 = 0.9139 | 254.11
303.15 K, x1 = 0.9609 | 253.07
304.14 K, x1 = 0.0061 | 226.83
304.14 K, x1 = 0.0494 | 237.28
304.14 K, x1 = 0.1 | 243.93
304.14 K, x1 = 0.1547 | 248.12
304.14 K, x1 = 0.1999 | 250.66
304.14 K, x1 = 0.4986 | 257.22
304.14 K, x1 = 0.8023 | 256.13
304.14 K, x1 = 0.9139 | 254.91
304.14 K, x1 = 0.9609 | 254.18
304.16 K, x1 = 0.0249 | 231.5
304.16 K, x1 = 0.2993 | 254.39
304.16 K, x1 = 0.4051 | 256.27
304.16 K, x1 = 0.5981 | 257.54
304.16 K, x1 = 0.7015 | 257.2
305.14 K, x1 = 0.0061 | 227.18
305.14 K, x1 = 0.0249 | 231.73
305.14 K, x1 = 0.0494 | 237.51
305.14 K, x1 = 0.1 | 244.44
305.14 K, x1 = 0.1547 | 248.76
305.14 K, x1 = 0.1999 | 251.35
305.14 K, x1 = 0.2993 | 255.22
305.14 K, x1 = 0.4051 | 257.25
305.14 K, x1 = 0.4986 | 258.3
305.14 K, x1 = 0.5981 | 258.63
305.14 K, x1 = 0.7015 | 258.36
305.14 K, x1 = 0.8023 | 257.38
305.14 K, x1 = 0.9139 | 256.1
305.14 K, x1 = 0.9609 | 255.35
306.15 K, x1 = 0.0061 | 227.53
306.15 K, x1 = 0.0249 | 231.92
306.15 K, x1 = 0.0494 | 237.81
306.15 K, x1 = 0.1 | 244.85
306.15 K, x1 = 0.1547 | 249.34
306.15 K, x1 = 0.1999 | 252.03
306.15 K, x1 = 0.2993 | 256.04
306.15 K, x1 = 0.4051 | 258.23
306.15 K, x1 = 0.4986 | 259.33
306.15 K, x1 = 0.5981 | 259.69
306.15 K, x1 = 0.7015 | 259.47
306.15 K, x1 = 0.8023 | 258.63
306.15 K, x1 = 0.9139 | 257.22
306.15 K, x1 = 0.9609 | 256.43
307.14 K, x1 = 0.0061 | 227.97
307.16 K, x1 = 0.0249 | 232.13
307.16 K, x1 = 0.0494 | 238.05
307.16 K, x1 = 0.1 | 245.3
307.16 K, x1 = 0.1547 | 249.89
307.16 K, x1 = 0.1999 | 252.7
307.16 K, x1 = 0.2993 | 256.85
307.16 K, x1 = 0.4051 | 259.16
307.16 K, x1 = 0.4986 | 260.39
307.16 K, x1 = 0.5981 | 260.8
307.16 K, x1 = 0.7015 | 260.58
307.16 K, x1 = 0.8023 | 259.83
307.16 K, x1 = 0.9139 | 258.36
307.16 K, x1 = 0.9609 | 257.53
308.14 K, x1 = 0.0061 | 228.36
308.14 K, x1 = 0.0249 | 232.33
308.14 K, x1 = 0.0494 | 238.3
308.14 K, x1 = 0.1 | 245.7
308.14 K, x1 = 0.2993 | 257.61
308.14 K, x1 = 0.4051 | 260.05
308.14 K, x1 = 0.4986 | 261.33
308.14 K, x1 = 0.5981 | 261.79
308.14 K, x1 = 0.7015 | 261.67
308.14 K, x1 = 0.8023 | 260.9
308.14 K, x1 = 0.9139 | 259.4
308.14 K, x1 = 0.9609 | 258.61
308.16 K, x1 = 0.1547 | 250.43
308.16 K, x1 = 0.1999 | 253.31
309.15 K, x1 = 0.0061 | 228.7
309.15 K, x1 = 0.0249 | 232.53
309.15 K, x1 = 0.0494 | 238.53
309.15 K, x1 = 0.1 | 246.14
309.15 K, x1 = 0.1547 | 250.99
309.15 K, x1 = 0.1999 | 253.95
309.15 K, x1 = 0.2993 | 258.43
309.15 K, x1 = 0.4051 | 260.95
